Reference: patent US20250276008A1, “USE OF LITHIUM-CONTAINING COMPOUNDS IN TREATMENT OF TUMORS” (Institute of Basic Medical Sciences Chinese Academy of …, priority 2023, published 2025)

Key:
[1] = during administration of lithium carbonate 75 mg/kg by gavage
Method: (§1) The proportion of tumor-infiltrating human CD8^+ T cells was analyzed on Day 18.

[2] = tested on: MCT1; assay: Localization of MCT1 to mitochondria (Western blot of isolated T cell mitochondria); type: cell-based, mouse; settings: Western blot of isolated T cell mitochondria
Source text: The inventor further explored the molecular mechanism by which LC led to the shunting of lactic acid to mitochondria. Entry of lactic acid into mitochondria requires the localization of MCT1 to the inner mitochondrial membrane IMM (Redox Biol. 2020 August;35:101454). […] MCT1 is generally recognized as a secreted protein with an endoplasmic reticulum-targeting sequence that enters the endoplasmic reticulum and localizes to the plasma membrane. We hypothesized that LC could induce MCT1 variants with mitochondrial targeting sequences (MTSs). However, no MCT1 variant was found in LC-treated T cells by sequencing analysis, and only one transcript of MCT1 was found after alignment analysis on NCBI. A MTS was found at the N-terminus of MCT-1protein by protein sequence analysis, which was present downstream of the endoplasmic reticulum targeting sequence, forming a double-peak chimeric sequence. This double-peak sequence may direct MCT-1 to target the endoplasmic reticulum or mitochondria, and may be regulated by serine/threonine phosphorylation of PKA or PKC (Avadhani, N. G. 2011. FEBS J 278, 4218-4229).

[3] = tested on: 4T1 breast cancer; settings: 4T1 tumor-bearing mouse model
Source text: (§2) The present inventors further established MC38 colon cancer and 4T1 breast cancer tumor-bearing mouse models.

[4] = tested on: MC38 colon cancer; settings: MC38 tumor-bearing mouse model
Source text: as §2

[5] = tested on: CD8^+ T cells
Source text: The lactic acid that enters the mitochondria is further converted into pyruvic acid with the participation of lactate dehydrogenase to enter the TCA cycle for oxidative metabolism. LDHa and LDHb are two major lactate dehydrogenase genes that encode LDHa (also known as M subunit) and LDHb (H subunit). The five LDH isozymes from LDH1 to LDH5 consist of M and H subunits, and are 4H, 3H1M, 2H2M, 1H3M and 4M, respectively.
Furthermore, this study analyzed the molecular mechanism bu which LC promotes the localization and expression of LDHb in mitochondria. […] TFEB is a major regulator of lysosomal functions. […] In addition, Tfeb^fl/fl Lck^cre mice were constructed in this study, and CD8^+ T cells were isolated from the spleen of mice to repeat the above experiments.

[6] = tested on: human A375 tumor cells; settings: humanized NSG mice
Method: Model establishment: NOD.Cg-PrkdcIl2rg<tm1Wjl>SzJ (NSG) mice were irradiated with X-ray irradiation (2 Gy). 10^7 PBMCs from healthy volunteers were adopted into NSG mice through the tail vein within 24 hours. After 24 hours, human A375 tumor cells were digested and counted, 4×10^5 of which were inoculated subcutaneously into the right back of NSG mice, and tumorigenesis generally occurred in about seven days.
as §1

[7] = tested on: PKCθ
Source text: PKCθ is a new member of the PKC family, which is activated by DAG and is widely expressed in T lymphocytes. […] This enzyme has PLC activity and catalyzes the production of DAG from lysosomal phospholipids.

[8] = tested on: OVA-B16 melanoma cells
Method: In order to further verify the anti-tumor immune response specific for CD8^+ T cells induced by LC, on the basis of the established tumor-bearing mice above (Example 7), 1×10^6 CD45.1 OT-1 T tumor-specific CD8^+ T cells were sorted and adoptively transferred through the tail vein to wild-type C57 mice 24 hours before the subcutaneous tumor inoculation. After 24 hours, 1×10^5 OVA-B16 melanoma cells were subcutaneously inoculated into the right back of the mice.

[9] = tested on: CD8^+ T cells; assay: Cytosolic Ca2+ / lysosomal Ca2+ release in CD8+ T cells; type: cell-based, mouse
Source text: Next, we investigated the molecular mechanism by which LC activated TFEB in CD8^+ T cells. It has been reported (Nat Cell Biol. 2015 March;17(3):288-99) that in addition to being able to degrade exogenous or endogenous biomacromolecules, lysosomes, like endoplasmic reticulum and mitochondria, are also storage sites for Ca^2+ and can initiate the transduction of calcium-related downstream signals.
(§3) In order to better track the flow of H^+, ^2D (deuterium)-acetic acid (DAC) or ^2D-sulfuric acid (D2SO4) was added to the culture medium of CD8^+ T cells. […] The K-loop of V-ATPase is located in the hydrophobic lipid bilayer and is essential for the pumping of cytosolic H^+ into the lysosomal lumen. Li^+ has been reported to bind to the K-loop of V-ATPase in Enterococcus hirde and induce deprotonation of the Glul39 residue (J. Am. Chem. Soc. 2011.133. 2860-2863).

[10] = tested on: CD8^+ T cells; remark: listed apart in the source
[11] = tested on: lysosomal V-ATPase; assay: Lysosomal pH, Atp6v0c, H+ (deuterium) flow and Li+ accumulation in CD8+ T cells; type: cell-based, mouse
Method: as §3

[12] = tested on: mouse melanoma B16 cells; settings: 75 mg/kg by gavage
Method: Lithium carbonate is an inorganic compound with the chemical formula Li2CO3 and a molecular weight of 73.89. Lithium carbonate was prepared as follows: • 1) 1.000 g of lithium carbonate (Sigma, WXBC5202V) was weighed and placed in a beaker containing 50 mL of double-distilled water, and the volume was brought to 100 mL with double-distilled water. • 2) The mixture was mixed well in an ice water bath for 2 hours to fully dissolve the lithium carbonate. • 3) The solution was aliquoted into 50 mL centrifuge tubes and stored at 4° C.
(§4) Model establishment: Cultured mouse melanoma B16 cells were resuspended in PBS buffer and inoculated subcutaneously at 1×10^5 cells/mouse into the right back of the mouse, with an injection volume of 50 μL. The needle of a 1 ml syringe was inserted from the right thigh of the mouse, penetrating under the skin to the back, to inject 50 μL of tumor cell suspension subcutaneously to the mouse to form a translucent lump of skin. Care should be taken not to puncture the skin of the mouse. The needle was quickly withdrawn after the injection, so as to avoid any leaking of tumor cells when withdrawing the needle, which would result in tumorigenesis of multiple subcutaneous tumors. Tumor cells were inoculated as soon as possible to maintain cell viability.

[13] = tested on: 4T1 breast cancer
Method: as §4
(§5) The present inventor further established MC38 colon cancer and 4T1 breast cancer tumor-bearing mouse models.

[14] = tested on: MC38 colon cancer
Method: as §4, §5

[15] = patients with bipolar disorder; J Clin Psychopharmacol. 2017; cited from earlier work

O=C([O-])[O-].[Li+].[Li+] [LC, lithium carbonate]
blood lithium concentration of mice (monitored and maintained) [1]: 1 mM | expression / localization of MCT1 in mitochondria [2]: significantly increased | therapeutic effect of an anti-PD-1 antibody (tumor size, survival rate) [3]: enhance | therapeutic effect of an anti-PD-1 antibody (tumor size, survival rate) [4]: enhance | expression of LDHa [5]: up-regulated | expression of LDHb [5]: up-regulated | expression and nuclear localization of TFEB ([5]; results not shown): significantly up-regulated | tumor growth in mice [6]: inhibited | infiltration of human CD8^+ T cells ([6]; LC 75 mg/kg gavage, Day 18): significantly increased | DAG levels in CD8^+ T cells [7]: increased | expression of acid sphingomyelinase (ASM) in lysosomes [7]: increased | localization of PKCθ to lysosomes [7]: could induce | PKCθ activation ([7]; ASM expression interfered with shASM): could not induce | tumor growth in mice ([8]; OVA-B16): inhibit | expression of the effectors IFN-γ and CD107a ([8]; OVA-B16, Day 18): increase | number of tumor-infiltrating CD8^+ T cells ([8]; OVA-B16, OT-1 adoptive transfer model, LC 75 mg/kg gavage, Day 18): increase | efficacy of T cell adoptive therapy ([8]; OVA-B16 melanoma tumor-bearing mice): enhances | expression of Mcoln2 [9]: increased | cytosolic Ca^2+ concentrations ([9]; results not shown): increased | level of extracellular lactic acid [10]: reduced | uptake of exogenous lactic acid by CD8^+ T cells [10]: did not affect | lactic acid in mitochondria ([10]; 2D-lactic acid tracing, 2 hours after treating with LC): highly accumulated | elevation in lactic acid levels in activated CD8^+ T cells caused by exogenous lactic acid ([10]; 13C-lactic acid tracing): counteracted | mitochondrial m+3 lactic acid, nuclear m+3 lactic acid and lactyl-CoA ([10]; 13C-lactic acid tracing, after 24 hours): almost undetectable | oxidation products of lactic acid (m+2 citric acid, m+4 malic acid) ([10]; after 24 hours): more oxidation products of lactic acid were detected | levels of intracellular lactic acid and histone Kla ([10]; after 24 hours, versus control group): significantly lower | expression of lysosome-related gene Atp6v0c [11]: significantly decreased | lactylation of the Atp6v0c gene (ChIP-seq) [11]: disappeared | entry of deuterium ions into the lysosomal lumen ([11]; 2D-acetic acid or 2D-sulfuric acid added to culture medium): significantly inhibited | lysosomal pH ([11]; LA-treated cells, increased from 4.4 within 30 minutes): 5.9 | growth of B16 tumors ([12]; 5 doses from Day 7): effectively inhibit | survival of mice ([12]; B16): prolong | number of tumor-infiltrating CD8^+ T cells ([12]; B16, 5 doses from Day 7, Day 18): increase | expression of the effectors IFN-γ and CD107a ([12]; B16, Day 18): increase | expression of the effectors IFN-γ and CD107a ([13]; 4T1): increase | survival of mice ([13]; 4T1): prolong | number of tumor-infiltrating CD8^+ T cells ([13]; 4T1, treated as B16 model): increase | growth of 4T1 breast cancer ([13]; mouse, in vivo): effectively inhibit | expression of the effectors IFN-γ and CD107a ([14]; MC38): increase | survival of mice ([14]; MC38): prolong | number of tumor-infiltrating CD8^+ T cells ([14]; MC38, treated as B16 model): increase | growth of MC38 colon cancer ([14]; mouse, in vivo): effectively inhibit | lactic acid levels in the cerebrospinal fluid [15]: significantly down-regulate
